Series [1] relates to B. subtilis (ATCC 6633). Nature of the series: Broth microdilution (serial double dilution) MIC/MBC. The format is cell-based. The following applies: Bacillus subtilis; for MIC: ATCC6633, 24 h, 37 °C, micro-broth dilution. Here is the method:
(§1) S. aureus (ATCC® 29213™), B. subtilis (ATCC® 6633™), E. coli (ATCC® 25922™), P. aeruginosa (ATCC® 27853™), C. albicans (ATCC® 10231™), and C. glabrata (ATCC® 2001™) were cultured onto sterile Mueller-Hinton agar plates, and incubated at 37 °C for 24 h. After incubation, a single colony was selected to inoculate a sterile tube containing 2 mL of sterile normal saline to match the turbidity of a 0.5 McFarland standard (10^8 cfu/mL). Further dilution was done with sterile normal saline to 10^5 cfu/mL before incubation.
(§2) Serial dilution of the synthesized compounds suspension in DMSO (2000–15.62 μg/mL) was done in a sterile 96-well plate. Then, 20 μL of an overnight bacterial and fungal suspension and 180 μL of the compounds suspension in MHB (and 1% glucose for fungal strains) were mixed in each well. The final concentration of DMSO was 10%. After 24 h of incubation at 37 °C, the first concentration with no bacterial growth is regarded as the minimum inhibitory concentration (MIC). Controls (microorganism strain in MHB without chemical and MHB alone) were included in each measurement. Aliquots of 5 μL from wells in which no growth was observed were spotted onto Mueller–Hinton agar plates to determine the minimum bactericidal concentration (MBC) values. The MBC was read as the lowest concentration with no growth after 24 h of incubation.
A general note: Broth dilution looks for growth in wells or tubes with falling amounts of substance.

Series [2] deals with S. aureus (ATCC 29213). Described as above. The format is cell-based. The following applies: Staphylococcus aureus. Here is the method:
as §1, §2

Series [3] concerns E. coli (ATCC 25922). The description is as above. The class given is cell-based, Escherichia coli. As to conditions: for MIC / MBC: Escherichia coli; for MIC: ATCC25922, 24 h, 37 °C, micro-broth dilution; for MBC: ATCC25922, micro-broth dilution. The procedure:
as §1, §2

For series [4], the system named is P. aeruginosa (ATCC 27853). Described as above. As to conditions: for MIC: ATCC27853, 24 h, 37 °C, micro-broth dilution. The class given is cell-based, Pseudomonas aeruginosa. Here is the method:
as §1, §2

Series [5] concerns C. albicans (ATCC 10231). Also noted: method as in PMID 31649917. The following applies: cited from earlier work.
Series [6] relates to Saos-2 cell line. Also noted: method as in PMID 31649917. As to conditions: Saos-2, thiosemicarbazide ligand and metal derivatives; cited from earlier work.
Series [7] has as its system C. albicans (ATCC 10231). Nature of the series: Broth microdilution (serial double dilution) MIC/MBC. The class given is cell-based, Candida albicans. The following applies: for MIC: 37 °C, micro-broth dilution. The procedure: as §1, §2
Series [8] relates to C. glabrata (ATCC 2001). The series is described as above. The format is cell-based, Candida glabrata. As to conditions: 24 h, 37 °C, micro-broth dilution. Here is the method: as §1, §2
The subject of series [9] is MG-63 cell line. Nature of the series: MTT cytotoxicity assay. The class given is cell-based, human. The following applies: for IC50: Homo sapiens, MG-63, MTT, 48 h, read-out: In vitro cytotoxic activity IC50; for anti-cancer effect: MG-63, especially at 2.5–20 μg/mL. The procedure: (§3) The colorimetric MTT assay, introduced by Mossmann, was used for the evaluation of the anti-cancer activity of our synthesized compounds against Saos-2 and MG-63 cell lines (human bone cancer cells). These cells were obtained from the Pasteur Institute of Iran, Tehran, Iran and maintained in RPMI 1640 medium supplemented with 10% FBS and 1% benzylpenicillin/streptomycin. […] The cells without treatment were considered as the control. After 48 h, the medium was removed and replaced with 200 μL of fresh medium containing 100 μg mL^−1 MTT powder and incubated for a further 4 h. The medium was then withdrawn and 100 μL of DMSO was added to dissolve the formazan crystals inside the cells. The absorbance of solubilized formazan was detected at 570 nm with the reference wavelength of 630 nm using an ELISA plate reader (Stat Fax, 2100, Awareness Technology Inc., Palm City, FL, USA). The viability of cells in each well was calculated by the following formula:(1) viability of cells (%)=mean absorbance of sample/mean absorbance of control×100.
In general terms: Tetrazolium assays rely on reduction of a dye to a coloured formazan, in cell work by metabolically active cells.

For series [10], the system named is Saos-2 cell line. The experiment in a line: MTT cytotoxicity assay. The class given is cell-based, human. The following applies: for IC50: Homo sapiens, Saos-2, MTT, 48 h, read-out: In vitro cytotoxic activity IC50; for anti-cancer effect: Saos-2, especially at 2.5–20 μg/mL. The procedure:
as §3

Series [11] has as its system Saos-2 cells. The experiment in a line: DAPI staining, morphology of cell nuclei. The format is cell-based, human. The following applies: Saos-2, 48 h exposure at IC50. Here is the method: To visually study the apoptotic effects of the synthesized compounds (L and its Co, Ni, Cu, and Zn complexes), the 4′,6-diamidino-2-phenylindole (DAPI) staining assay was performed according to the literature procedure. Briefly, Saos-2 cells were seeded in six-well plates (5 × 10^4 cells per well) and incubated at 37 °C for 24 h. After the growth of the cells, the culture media were replaced by fresh media containing L and its metal derivatives (sterile filtered through 500 nm) at their half-maximal inhibitory growth concentration (IC50). Cells receiving no treatment were considered as the control group. After 48 h, the cells were washed three times with fresh PBS (pH 7.4) to remove any chemical compounds. Subsequently, the cells were fixed with 4 wt% paraformaldehyde for 15 min at room temperature. Afterwards, the cells were washed three times with PBS and permeabilized with Triton X-100 (0.1% w/v) for 5 min. The cells were washed again with PBS and stained with 300 ng mL^−1 DAPI for 15 min. DNA condensation and fragmentation in apoptotic cells were evaluated under a fluorescence microscope.

In brackets after ≈: the same amount, converted by molar mass. Like-named read-outs stand apart in the source and are kept apart here.

`CNC(C)C1CCC(N)C(OC2C(N)CC(N)C(OC3OCC(C)(O)C(NC)C3O)C2O)O1` (stereo not shown) [Gentamicin]: the MIC turned out to be 2 µg/mL (≈ 4.19 µM) in series [1]; 0.12 µg/mL (≈ 0.251 µM) in series [2] (ATCC29213, 24 h, 37 °C, micro-broth dilution); 0.5 µg/mL (≈ 1.05 µM) in series [3]; 2 µg/mL (≈ 4.19 µM) in [4] (Pseudomonas aeruginosa). In addition, the MBC turned out to be 2 µg/mL (≈ 4.19 µM) in series [1] (ATCC6633, micro-broth dilution); 0.25 µg/mL (≈ 0.523 µM) in [2] (ATCC29213, micro-broth dilution); 0.5 µg/mL (≈ 1.05 µM) in series [3]; 2 µg/mL (≈ 4.19 µM) in series [4] (Pseudomonas aeruginosa, ATCC27853, micro-broth dilution).

For “Bisthiosemicarbazide-substituted p-tert-butylcalix[4]arene [thiosemicarbazide ligand]”, in [5], the “antifungal activity” value was “resistant”. In addition, the half-maximal inhibitory concentration (IC50) in series [6] is above 200 µg/mL.

In the case of `C[C@@H]1[C@H](O)[C@@H](C)/C=C/C=C/CC/C=C/C=C/C=C/C=C/C(O[C@H]2O[C@H](C)[C@@H](O)[C@H](N)[C@@H]2O)CC2O[C@](O)(CC(O)C(O)CCC(O)CC(O)CC(O)CC(=O)O[C@H]1C)CC(O)C2C(=O)O` (stereo partly shown) [Nystatin], the minimal inhibitory concentration (MIC) in series [7] (24 h) was found to be 1.25 µg/mL (≈ 1.35 µM); in series [8], 0.625 µg/mL (≈ 0.675 µM).

Turning to `CN(Cc1cnc2nc(N)nc(N)c2n1)c1ccc(C(=O)N[C@@H](CCC(=O)O)C(=O)O)cc1` [MTX, Methotrexate], in series [9], the half-inhibitory concentration (IC50) turned out to be 14.5 µg/mL (≈ 31.9 µM) and the “anti-cancer effect” value is on record as “strong anti-cancer effects”. Also, in [10], the IC50 is 7.9 µg/mL (≈ 17.4 µM) and the “anti-cancer effect” value is given as “strong anti-cancer effects”.

On to `CC(C)(C)c1cc2c(O)c(c1)Cc1cc(C(C)(C)C)cc(c1OCCNC(=S)NN=Cc1ccccc1O)Cc1cc(C(C)(C)C)cc(c1O)Cc1cc(C(C)(C)C)cc(c1OCCNC(=S)NN=Cc1ccccc1O)C2` [Ligand L, 5, 11, 17, 23-tetra-tert-butyl-26, 28-dihydroxy-25, 27-bis(2(2-hydroxybenzeledene)thiosemicarbazonoethoxy) calix[4]arene], for which the melting point was 230 °C (dec.). This compound also showed a minimum inhibitory concentration (MIC) in series [1] of 31.2 µg/mL (≈ 28.6 µM). In addition, in [3], the “improvement of MIC in comparison with thiosemicarbazide equivalent” value is recorded as 8 fold, the MIC was determined as 31.2 µg/mL (≈ 28.6 µM) and the MBC was 31.2 µg/mL (≈ 28.6 µM). For the same compound, the “improvement of MIC in comparison with thiosemicarbazide equivalent” value in [4] is listed as 2 fold. Also, the MIC in series [4] (Pseudomonas aeruginosa) came to 31.2 µg/mL (≈ 28.6 µM). In addition, the “antifungal activity” value in series [7] is listed as “strong”. Further, the minimal inhibitory concentration (MIC) in series [7] (Candida albicans, ATCC10231, 24 h, read-out: MIC) was 31.2 µg/mL (≈ 28.6 µM). Further, the MBC in [7] (Candida albicans, ATCC10231, micro-broth dilution) amounted to 125 µg/mL (≈ 115 µM). In addition, the “antifungal activity” value in series [7] (listed as thiosemicarbazone schiff-base ligand) was “significant antifungal activity”. Also, the IC50 in [9] is above 200 µg/mL. Moreover, the half-inhibitory concentration (IC50) in series [10] is below 25 µg/mL. Also, the “morphology of cell nuclei (DAPI-stained cells)” value in series [11] is “deformed and fragmented nuclei”.

`COc1cccc2c1C(=O)c1c(O)c3c(c(O)c1C2=O)C[C@@](O)(C(=O)CO)C[C@@H]3O[C@H]1C[C@H](N)[C@H](O)[C@H](C)O1` [DOX, doxorubicin]: in series [9], the half-inhibitory concentration (IC50) was 10.1 µg/mL (≈ 18.6 µM) and the “anti-cancer effect” value is on record as “strong anti-cancer effects”. In addition, in series [10], the IC50 amounted to 2.1 µg/mL (≈ 3.86 µM) and the “anti-cancer effect” value is on record as “strong anti-cancer effects”.

Broadly, the MIC is the smallest concentration in the dilution series that meets the test's criterion for growth inhibition. What is called IC50 is the concentration needed to halve the response being measured. As usually defined, the melting point is the temperature of the solid-liquid transition.

The values are drawn from publication PMC7024204, “Synthesis, Crystal Structure, and Biological Activity of a Multidentate Calix[4]arene Ligand Doubly Functionalized by 2-Hydroxybenzeledene-Thiosemicarbazone” (Molecules, 2020).
